We go through four molecules from article PMC7737618, “Structure and elevator mechanism of the mammalian sodium/proton exchanger NHE9” (The EMBO Journal, 2020).

For series [1], the target named is T1, NHE9* (Equus caballus, UniProt F7B113).
T1 construct: gene SLC9A9; residues 8-575 (8-574 elsewhere) of 644, C-terminal tail truncated; GFP-TwinStrep-His8 fusion kept for thermal shift; S. cerevisiae FGY217; purified homodimer
T1 sequence (F7B113 8-575): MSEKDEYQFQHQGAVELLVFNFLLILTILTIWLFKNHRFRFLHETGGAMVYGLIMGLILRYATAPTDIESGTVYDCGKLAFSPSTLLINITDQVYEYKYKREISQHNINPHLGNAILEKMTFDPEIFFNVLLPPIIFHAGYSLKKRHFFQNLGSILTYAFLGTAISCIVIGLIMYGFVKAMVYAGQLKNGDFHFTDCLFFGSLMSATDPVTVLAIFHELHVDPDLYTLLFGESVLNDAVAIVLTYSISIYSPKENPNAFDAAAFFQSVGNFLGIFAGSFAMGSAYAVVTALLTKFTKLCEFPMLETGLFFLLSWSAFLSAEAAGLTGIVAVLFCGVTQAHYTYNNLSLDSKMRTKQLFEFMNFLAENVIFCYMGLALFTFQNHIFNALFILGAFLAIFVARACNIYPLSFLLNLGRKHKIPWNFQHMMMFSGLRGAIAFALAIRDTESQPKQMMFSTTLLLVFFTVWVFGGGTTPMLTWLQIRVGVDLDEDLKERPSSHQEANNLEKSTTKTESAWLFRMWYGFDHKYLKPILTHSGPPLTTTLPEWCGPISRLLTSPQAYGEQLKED
Kind of series: GFP-based thermal shift (FSEC-TS). In kind it is binding. As to conditions: 1% DDM, 1% octyl glucoside, 10 min heating; lipid 1 mg/ml in the screen. From the text: GFP-based thermal shift (FSEC-TS) on NHE9* | In the presence of either PIP2 or PIP3, the average melting temperature (ΔT m)

Series [2] has as its target T2, NHE9* (Equus caballus, UniProt F7B113, K85Q/K105Q/K107Q).
T2 construct: gene SLC9A9; residues 8-575 (8-574 elsewhere) of 644, C-terminal tail truncated; GFP-TwinStrep-His8 fusion kept for thermal shift; S. cerevisiae FGY217; purified homodimer
T2 sequence (F7B113 8-575 K85Q/K105Q/K107Q): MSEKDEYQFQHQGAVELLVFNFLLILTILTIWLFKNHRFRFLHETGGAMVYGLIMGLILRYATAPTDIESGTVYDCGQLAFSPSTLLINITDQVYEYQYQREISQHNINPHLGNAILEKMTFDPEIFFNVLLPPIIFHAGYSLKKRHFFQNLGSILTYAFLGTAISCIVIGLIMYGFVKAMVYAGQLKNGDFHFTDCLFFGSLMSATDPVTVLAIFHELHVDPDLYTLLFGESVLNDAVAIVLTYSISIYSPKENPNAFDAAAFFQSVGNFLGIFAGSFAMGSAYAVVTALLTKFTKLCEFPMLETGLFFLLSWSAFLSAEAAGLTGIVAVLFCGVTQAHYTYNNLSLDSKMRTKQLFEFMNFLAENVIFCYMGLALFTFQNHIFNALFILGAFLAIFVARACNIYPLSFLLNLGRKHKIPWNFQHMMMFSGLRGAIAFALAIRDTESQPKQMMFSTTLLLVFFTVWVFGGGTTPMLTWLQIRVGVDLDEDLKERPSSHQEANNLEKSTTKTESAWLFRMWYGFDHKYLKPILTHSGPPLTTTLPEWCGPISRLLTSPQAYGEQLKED
Kind of series: GFP-based thermal shift (FSEC-TS). Type of series: binding. As to conditions: 1% DDM, 1% octyl glucoside, 10 min heating; lipid 1 mg/ml in the screen; TM2-TM3 loop mutant.

The target in a further series is T3, NHE9 ΔCTD (Equus caballus, UniProt F7B113).
T3 construct: gene SLC9A9; residues 8-481 of 644, whole C-terminal regulatory domain removed; GFP-TwinStrep-His8 fusion for thermal shift; S. cerevisiae FGY217; purified homodimer
T3 sequence (F7B113 8-481): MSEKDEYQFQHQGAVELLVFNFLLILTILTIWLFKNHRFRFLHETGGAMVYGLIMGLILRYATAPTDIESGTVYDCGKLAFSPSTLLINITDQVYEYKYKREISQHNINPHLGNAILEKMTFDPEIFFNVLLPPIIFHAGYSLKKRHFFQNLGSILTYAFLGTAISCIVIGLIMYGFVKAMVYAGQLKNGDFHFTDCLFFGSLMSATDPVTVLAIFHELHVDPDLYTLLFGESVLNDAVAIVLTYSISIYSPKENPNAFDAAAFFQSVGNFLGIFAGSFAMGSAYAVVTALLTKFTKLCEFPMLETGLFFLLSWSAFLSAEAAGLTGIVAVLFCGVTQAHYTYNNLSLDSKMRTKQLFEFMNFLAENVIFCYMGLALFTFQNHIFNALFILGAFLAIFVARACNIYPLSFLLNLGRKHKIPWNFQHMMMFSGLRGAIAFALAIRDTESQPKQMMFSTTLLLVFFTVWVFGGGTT
Kind of series: GFP-based thermal shift (FSEC-TS). In kind it is binding. The conditions noted are these: 1% DDM, 1% octyl glucoside, 10 min heating; lipid 1 mg/ml in the screen.

In series [3] the target is horse NHE9* (residues 8-575 out of 644), TEV-cleaved (Equus caballus (horse)). Kind of series: native MS; 100 mM ammonium acetate pH 7.0, 0.02% (w/v) DDM; NHE9* purified with or without added brain lipids.
Series [4] deals with the molecule itself. Kind of series: cryo-EM structure; purified protein in LMNG/CHS, 20 mM Tris-HCl pH 7.5, 150 mM NaCl; brain lipids added during purification; no symmetry imposed (C1).

As usually defined, the ΔTm is the shift of the melting midpoint relative to a reference. Broadly, the stoichiometry N is the number of molecules, sites or subunits per partner or assembly.

On to `CCCCCCCCCCCCCCCC(=O)OC[C@H](COP(=O)(O)O[C@H]1[C@H](O)[C@@H](OP(=O)(O)O)[C@H](OP(=O)(O)O)[C@@H](OP(=O)(O)O)[C@H]1O)OC(=O)CCCCCCCCCCCCCCC` [PIP3, phosphatidylinositol tris‐3,4,5‐phosphate,1,2‐dipalmitoyl], for which, at NHE9* [1], the shift in melting temperature (ΔTm) turned out to be 9 °C.
Regarding `CCCCCCCC(=O)OC[C@H](COP(=O)(O)O[C@@H]1[C@H](O)[C@H](O)[C@@H](OP(=O)(O)O)[C@H](OP(=O)(O)O)[C@H]1O)OC(=O)CCCCCCC` [PIP2, phosphatidylinositol bis‐4,5‐phosphate,1,2‐dioctanoyl], the ΔTm entry at NHE9* [2] is “a triple lysine‐to‐glutamine loop mutant markedly reduced PIP2‐mediated stabilization”; on NHE9* [1], 9 °C; on NHE9 ΔCTD it was “the ΔCTD construct was also analysed, yet additional stabilization upon PIP2 addition was still observed”.
For “horse NHE9* (residues 8-575 out of 644), TEV-cleaved (domain or fragment)”, the stoichiometry N in series [3] amounted to 2.

B1: horse NHE9 ΔCTD (residues 8-481 out of 644) (domain or fragment, Equus caballus (horse), UniProt F7B113 8-481, looked up)
chain: MSEKDEYQFQHQGAVELLVFNFLLILTILTIWLFKNHRFRFLHETGGAMVYGLIMGLILRYATAPTDIESGTVYDCGKLAFSPSTLLINITDQVYEYKYKREISQHNINPHLGNAILEKMTFDPEIFFNVLLPPIIFHAGYSLKKRHFFQNLGSILTYAFLGTAISCIVIGLIMYGFVKAMVYAGQLKNGDFHFTDCLFFGSLMSATDPVTVLAIFHELHVDPDLYTLLFGESVLNDAVAIVLTYSISIYSPKENPNAFDAAAFFQSVGNFLGIFAGSFAMGSAYAVVTALLTKFTKLCEFPMLETGLFFLLSWSAFLSAEAAGLTGIVAVLFCGVTQAHYTYNNLSLDSKMRTKQLFEFMNFLAENVIFCYMGLALFTFQNHIFNALFILGAFLAIFVARACNIYPLSFLLNLGRKHKIPWNFQHMMMFSGLRGAIAFALAIRDTESQPKQMMFSTTLLLVFFTVWVFGGGTT
notes: horse (Equus caballus) NHE9 (SLC9A9), residues 8-481 out of 644, lacking the entire C-terminal regulatory domain; C-terminal residues left after TEV cleavage are probably as in NHE9* (surmise); also called ΔCTD construct; source: S. cerevisiae FGY217, purified (Strep-Tactin XT, TEV digestion, SEC); not shown: GFP, C-terminal, cleaved; TwinStrep, C-terminal, cleaved; His8, C-terminal, cleaved
For B1, the binding result in series [4] is given as “binds”.
